# Source: patent publication US20090111759A1, “Synergistic Combination of Glutamate-and Gaba-Gated Chloride Agonist Pesticide and at Least One Vitamin E, Niacin, or Derivatives Thereof” (priority 2006, published 2009)
# Experiments:
# [1] = test system: Dysdercus cingulatus nymphs; assay type: in vivo; conditions: 2000 ng applied on each nymph; 24 h after applying
# Protocol: A range of Abamectin solutions in acetone was prepared. Similarly, a range of tocopherol, all-rac alpha, solutions in acetone was prepared. Abamectin solution (2 μl), tocopherol solution (2 μl) or both were applied topically on nymphs of Dysdercus cingulatus. Abamectin was applied dorsally while tocopherol was applied ventrally. […] The mortality of the nymphs was recorded 24 h after applying the solutions.
# [2] = test system: Dysdercus cingulatus nymphs; assay: Topical application of Abamectin/tocopherol acetone solutions, LD50 (Example 5); assay type: in vivo; conditions: sum of Abamectin and tocopherol; mortality recorded 48 h after applying
# Protocol: A range of Abamectin solutions in acetone was prepared. Similarly, a range of tocopherol, all-rac alpha, solutions was prepared. Mixed solutions of Abamectin and tocopherol in acetone were prepared as well. Nymphs of Dysdercus cingulatus were treated topically with either an Abamectin acetone solution (2 μl), a tocopherol acetone solution (2 μl) or mixed solutions (2 μl). The Dysdercus cingulatus mortality was recorded 48 h after applying the products.
# Log dose-mortality curves were constructed for the Abamectin and the tocopherol treatments. LD50 values based on the sum of Abamectin and tocopherol contents (ng active ingredient(s) per nymph) were calculated.
# From the observed LD50 values for Abamectin and tocopherol expected LD50 values for the mixtures were calculated according to Wadley's formula.
# [3] = test system: Dysdercus cingulatus nymphs; assay: Topical application of Abamectin/nicotinamide acetone solutions, LD50 (Example 7); assay type: in vivo; conditions: sum of Abamectin and nicotinamide; mortality recorded 48 h after applying
# Protocol: A range of Abamectin solutions in acetone was prepared. Similarly, a range of nicotinamide solutions was prepared. Mixed solutions of Abamectin and nicotinamide in acetone were prepared as well. Nymphs of Dysdercus cingulatus were treated topically with either an Abamectin acetone solution (2 μl), a nicotinamide acetone solution (2 μl) or mixed solutions (2 μl).
# The Dysdercus cingulatus mortality was recorded 48 h after applying the products. Log dose-mortality curves were constructed for the Abamectin, the nicotinamide and for the mixed solutions. The LD50 values reflect the sum of Abamectin and nicotinamide (active ingredients) present at LD50.
# From the observed LD50 values for Abamectin and nicotinamide expected LD50 values for the mixtures were calculated according to Wadley's formula.
# [4] = test system: Dysdercus cingulatus nymphs; assay type: in vivo; conditions: in total 20,000 ng/nymph applied dorsally; two replicates of ten nymphs
# Protocol: Abamectin, Ivermectin and tocopherol solutions in acetone were prepared. Mixed solutions of either Abamectin or Ivermectin and tocopherol were also prepared. Nymphs of Dysdercus cingulatus were treated topically with Abamectin acetone solution (20,000 ng/nymph), Ivermectin acetone solution (20,000 ng/nymph), a tocopherol acetone solution (20,000 ng/nymph) or a solution containing Abamectin and tocopherol or Ivermectin and tocopherol in the ratio 1:3 (20,000 ng total/nymph). The solutions were applied dorsally on the nymphs.
# The Dysdercus cingulatus mortality was followed over time and recorded. Log time-mortality curves were constructed for the Abamectin and Ivermectin solutions and for the mixtures with tocopherol. An LT50 value was calculated for each application.
# [5] = test system: Spodoptera exigua larvae; conditions: single ingredient, 10 ppm in tests solution
# Protocol: (§2) The efficacy of an Abamectin 18 g/l emulsifiable concentrate formulation (EC) was tested on Spodoptera exiqua larvae on Tradescani crassifolia leaves. The test on Spodoptera exigua was done as a dip-test where Tradescani crassifolia leaves were dipped in the various tests solutions and dried. Afterwards, each leaf was infested with 5 Spodoptera exigua larvae.
# (§3) Besides testing the Abamectin 18 g/l EC formulation, Abamectin 18 g/l EC formulation was tested together with 4.5 g/l and 72 g/l nicotinamide. An EC formulation comprising nicotinamide was included in the test as well.
# [6] = test system: Tetranychus urticae; assay: Spray test of Spinosad and tocopheryl acetate on bean plants (Vicia faba), leaf protection (Example 13); assay type: in vivo; conditions: single active, leaf protection 7 days after mites placed, average of four evaluations
# Source text: Using the alternative method for determining synergism the effect of each mixture of Spinosad and tocopheryl acetate is compared with the effect of the same rate of each of the active ingredients used alone.
# [7] = test system: Haemonchus contortus; assay: Larvae feeding inhibition study (Example 23); conditions: tested alone, in the tested dose range
# Source text: (§1) The calculations done according to Wadley and shown in Table 23 indicate that synergistic action of Ivermectin and tocopheryl acetate and Doramectin and tocopheryl acetate was pre-sent in the larvae feed inhibition study. The synergistic action of Ivermectin and tocepheryl acetate in the H. contortus experiment is of particular interest because the H. contortus iso-late used was Ivermectin resistant.
# [8] = test system: Teladorsagia (Ostertagia) circumcincta; assay: Larvae feeding inhibition study (Example 23); conditions: tested alone, in the tested dose range
# Source text: as §1
# [9] = test system: Trichostrongylus colubriformis; assay: Larvae feeding inhibition study (Example 23); conditions: tested alone, in the tested dose range
# Source text: as §1
# [10] = test system: adult sea lice (Lepeophtheirus salmonis); conditions: tested alone at various concentrations
# Protocol: Eur. 5th Ed was studied on adult sea lice (Lepeophtheirus salmonis), a fish parasite, in seawater in Petri dishes. Emamectin benzoate and tocopheryl aceate were tested at various concentrations. In addition, mixtures of Emamectin benzoate and tocopheryl aceate, ratio 1:10 based on weight, were tested as well.
# [11] = test system: cat fleas (Ctenocephalides felis felis) larvae; assay: In vitro contact test on flea larvae (Example 25); conditions: tested alone
# [12] = test system: cat fleas (Ctenocephalides felis felis) adult; assay: In vitro contact test on adult fleas (Example 25); conditions: tested alone
# [13] = test system: cat fleas (Ctenocephalides felis felis) larvae; assay: In vitro larvae test based on systemic activity (Example 25); conditions: tested alone
# [14] = test system: Onchocerca lienalis microfilariae; assay: Microfilariae mobility test (Example 26); conditions: alone, in the concentration range tested
# [15] = test system: larvae of Lucilia cuprina (sheep blowfly)
# Source text: A mixture of Spinosad and tocopheryl acetate, all-rac alpha, Ph.
# [16] = test system: Spodoptera exigua larvae; assay: whole plant or invertebrate; conditions: read-out: Observed mortality (%)
# Protocol: as §2, §3
Compound,% Mortality for each ingredient [1] [%],LD50obs [2],LD50obs [3],LT50 [4] [h],Observed mortality (%) [5] [%],% protection ([6]; 100 g/ha) [%],% protection ([6]; 300 g/ha) [%],feeding inhibition activity [7],feeding inhibition activity [8],feeding inhibition activity [9],activity in its own right [10],activity in its own right [11],activity in its own right [12],activity in its own right [13],effect on mobility of the microfilaria [14],activity on the larvae [15],mortality at 10 ppm [16] [%]
Abamectin,74,1595 ng AI(s) per nymph,126 ng AI(s) per nymph,5.3,10,,,,,,,,,,,,
CC(=O)Oc1c(C)c(C)c2c(c1C)CCC(C)(CCC[C@H](C)CCC[C@H](C)CCCC(C)C)O2 (mixture of isomers) [tocopheryl acetate],,,,,,15,8.8,did not have any feeding inhibition activity,did not have any feeding inhibition activity,did not have any feeding inhibition activity,did not have any activity,did not have any activity,did not have any activity,did not have any activity,did not affect the mobility,no activity,
NC(=O)c1cccnc1 [nicotinamide],,,">20,000 ng AI(s) per nymph",,,,,,,,,,,,,,0
